What is called pIC50 is −log10 of the IC50, conventionally taken in molar units.

pIC50: −log10 of the molar value. Several values for one entry are separate records, joined by “and”; a condition that tells them apart may be missing. Equal values may be shown once.

Common to all, as to assay type: cell-based, Human
In test [1] the test system is HEL^RE (HEL-resistant, ruxolitinib-resistant) cells. As to the kind of experiment: Anti-proliferative test, CellTiter-Lumi luminescence method, HEL-resistant model. The following applies: for pIC50: HEL^RE cells. As to the method:
(§1) HEL (Human erythroleukemia cell line) and drug-resistant HEL cells were cultured in RPMI medium (Gibco) containing 20% heat-inactivated fetal bovine serum (Gibco) and 1% penicillin/streptomycin (Gibco).
(§2) HEL^PE model, namely HEL-persistent model, was constructed by treating HEL blast cells with a high concentration of ruxolitinib that exceeded the IC50 concentration of blast cells by more than 100 times, wherein the concentration of ruxolitinib used herein was 2.0 μM. The culture medium of the cells was changed every two days, the cells that cannot tolerate the high concentration of ruxolitinib died quickly, while the proliferated cells were DTP (drug-tolerant-persisters), and this cell subset was difficult to be killed by antitumor drugs. Stable drug-resistant cells were obtained after 4-6 weeks. Another drug resistance model is HEL^RE, namely the HEL-resistant model, which was constructed by treating blast cells with ruxolitinib from a starting concentration lower than the IC50 concentration of blast cells, slowly increasing to a high concentration to keep the cells from being killed. The starting concentration used herein was 0.1 μM, the drug was added as soon as the cells proliferated, the dosing gradient was 1.25-fold increments, and the final concentration was 2.0 μM. Stable drug-resistant cells were obtained after 4-6 weeks.
(§3) To test the anti-proliferative effect of the inhibitors, the above cell lines were cultured at a 3000 cells/200 μL per well, added with increasing concentrations of the inhibitors (concentration gradient: 0, 1, 2.5, 5, 10, 20 μM), then supplemented with DMSO to an equal volume. 4 parallel replicate groups and 3 blank wells (culture medium wells without cells) were set. After 72 hours, the cell proliferation was detected by a multi-plate reader using CellTiter-Lumi™ luminescence method (Beyotime), and the IC50 was calculated by Graph Pad prism.
(§4) The calculation formula of cell proliferation rate: cell proliferation rate=(Luminescence value of drug-treated group—average Luminescence value of blank wells)/(Luminescence value of DMSO control group—average Luminescence value of blank wells)×100%.
The method to evaluate whether the model is successfully constructed is to compare the IC50 of drug-resistant cells and naive cells, the obtained ratio was the drug-resistance index, and if the ratio was greater than 3, then the model was successfully constructed.

Test [2] shares this test system. In words: Apoptosis detection by flow cytometry after Annexin V-PI staining, HEL-resistant model. The settings on record: 24 hours. The source says:
(§5) Three parallel replicate groups were set up, and the apoptosis of cells was detected by flow cytometry after Annexin V-PI staining.
(§6) The calculation formula of the apoptosis rate: apoptosis rate=ratio of early apoptotic cells (Annexin V+/PI−)+ratio of late apoptotic cells and necrotic cells (Annexin V+/PI+).
(In general: In flow cytometry, cells or beads pass a laser one at a time.)

Test [3] relates to HEL cells. As to the kind of experiment: Anti-proliferative test, CellTiter-Lumi luminescence method, HEL cells. The following applies: 72 hours; for average proliferation rate: HEL cells, relative to DMSO control. As to the method:
as §1, §3, §4

Test [4] relates to HEL cells. As to the kind of experiment: Apoptosis detection by flow cytometry after Annexin V-PI staining, HEL cells. The settings on record: 24 hours.
From the text: as §5, §6

The test system of test [5] is HEL^PE (HEL-persistent, ruxolitinib-resistant) cells. As to the kind of experiment: Apoptosis detection by flow cytometry after Annexin V-PI staining, HEL-persistent model. The settings on record: 24 hours.
From the text: as §5, §6

Test [6] has the same test system. As to the kind of experiment: Anti-proliferative test, CellTiter-Lumi luminescence method, HEL-persistent model. The following applies: for pIC50: Homo sapiens, HEL^PE cells, 72 hours. As to the method:
as §1, §2
To test the anti-proliferative effect of the inhibitors, the above cell lines were cultured at a 3000 cells/200 μL per well, added with increasing concentrations of the inhibitors (concentration gradient: 0, 1, 2.5, 5, 10, 20 μM), then supplemented with DMSO to an equal volume. […] After 72 hours, the cell proliferation was detected by a multi-plate reader using CellTiter-Lumi™ luminescence method (Beyotime), and the IC50 was calculated by Graph Pad prism.
The calculation formula of cell proliferation rate: cell proliferation rate=(Luminescence value of drug-treated group—average Luminescence value of blank wells)/(Luminescence value of DMSO control group—average Luminescence value of blank wells)×100%. […]

In turn, `CNC(=O)c1cc(Oc2ccc(NC(=O)Nc3ccc(Cl)c(C(F)(F)F)c3)c(F)c2)ccn1` [regorafenib] gave a pIC50 in test [1] (Homo sapiens, 72 h) of 6.29. Besides, the average apoptosis rate was 9.50% in test [2] (2.5 μM); 12.9% in test [2] (5 μM); 14.7% in test [2] (10 μM); 4.31% in test [4] (2.5 μM); 7.76% in test [4] (5 μM); 10.6% in test [4] (10 μM). Further, the average proliferation rate in test [3] (1 μM) was determined as 84.7%; in test [3] (2.5 μM), 57.7%; in test [3] (5 μM), 32.1%; in test [3] (10 μM), 17.7%; in test [3] (20 μM), 1.15%.
As for `N#CC[C@H](C1CCCC1)n1cc(-c2ncnc3[nH]ccc23)cn1` [ruxolitinib, Ruxolitinib], the pIC50 in test [1] (72 hours) was 4.60; in test [3] (Homo sapiens, HEL naive cells, mean (95% confidence interval)), 7.30; in test [6], 4.59. Moreover, the drug-resistance index in test [1] (ratio of IC50 of HEL^RE cells to IC50 of naive HEL cells) came to 498; in test [6] (ratio of IC50 of HEL^PE cells to IC50 of naive HEL cells) it was 510. Besides, the average apoptosis rate in test [5] (2.5 μM) was 0.920%; in test [5] (5 μM), 1.11%; in test [5] (10 μM) it was 0.740%; in test [2] (2.5 μM) it was 1.16% and 3.75%; in test [2] (5 μM) it was 1.35% and 3.70%; in test [2] (10 μM), 1.05% and 4.34%. For the same compound, the average apoptosis rate in test [4] (2.5 μM) is 4.65% and 2.05%; in test [4] (5 μM) it was 5.07% and 2.14%; in test [4] (10 μM) it was 4.59% and 2.16%. Also, the average proliferation rate in test [3] (1 μM) was 41.4% and 50.5%; in test [3] (2.5 μM), 40.6% and 48.4%; in test [3] (5 μM) it was 42.8% and 50.2%; in test [3] (10 μM), 40.8% and 48.4%; in test [3] (20 μM), 22.9% and 28.5%.
Consider `CNC(=O)c1cc(Oc2ccc(NC(=O)Nc3ccc(Cl)c(C(F)(F)F)c3)cc2)ccn1` [sorafenib], for which the pIC50 was 5.45 in test [1] (Homo sapiens, 72 h) and 5.55 in test [6]. Further, the average apoptosis rate in test [5] (2.5 μM) was 2.16%; in test [5] (5 μM) it was 11.1%; in test [5] (10 μM), 18.0%; in test [2] (2.5 μM) it was 1.22%; in test [2] (5 μM), 5.58%; in test [2] (10 μM), 18.6%. Moreover, the average apoptosis rate amounted to 5.82% in test [4] (2.5 μM), 10.9% in test [4] (5 μM) and 16.1% in test [4] (10 μM). The average proliferation rate is given as 80.3% in test [3] (1 μM), 72.1% in test [3] (2.5 μM), 40.0% in test [3] (5 μM) and 0.828% in test [3] (20 μM).
